# Laboratory results taken from ChEMBL document CHEMBL5143608, “Peptide-based long-acting co-agonists of GLP-1 and cholecystokinin 1 receptors as novel anti-diabesity agents” (Eur J Med Chem, 2022).
# The source made the active and inactive calls. No cut-off for these calls is given here. *1 amine or outer side, *2 acyl side, *3 side chain or, on linkers, in order; H or OH if unused. Where a SMILES comes first, the peptide text is derived from it. Side-chain parts run from the residue outwards. [ ]: non-standard residue; d: D form. The star is where a group is joined. γGlu = O=C(O)[C@H](CCC(=O)[*:2])N[*:1]; Palmitoyl = CCCCCCCCCCCCCCCC(=O)*; Aib = CC(C)(N)C(=O)O
# Columns and labels:
# Mus musculus [1] = test: Anti-diabesity activity against high fat diet-induced DIO C57BL/6 mouse model assessed as decrease in body weight at 25 nmol/kg, sc administered for 2 weeks; type: functional; details: C57BL/6, 336 h, time 14 day
# [2] = Pancreatic insult activity in db/db mouse assessed as increase in lipase level in serum at 25 nmol/kg, sc administered every 2 days for 12 weeks; type: toxicity, organism-based; details: in vivo, 2016 h
# [3] = Pancreatic insult activity in db/db mouse assessed as increase in amylase level in serum at 25 nmol/kg, sc administered every 2 days for 12 weeks; type: toxicity, organism-based; details: in vivo, 2016 h
# Mus musculus [4] = test: Anti-diabesity activity against high fat diet-induced DIO C57BL/6 mouse model assessed as reduction in fat mass accumulation at 25 nmol/kg, sc administered for 2 weeks and measured on day 15 by NMR analysis; type: functional, organism-based; details: time 15.0 day
# Mus musculus [5] = test: Anorectic activity in ICR mouse assessed as decrease in food intake at 25 nmol/kg, ip and measured after 9 hrs; type: functional, organism-based
# Mus musculus [6] = test: Anti-diabesity activity against high fat diet-induced DIO C57BL/6 mouse model assessed as reduction in food intake at 25 nmol/kg, sc administered for 2 weeks; type: functional, organism-based; details: time 14.0 day
# Mus musculus [7] = test: Hypoglycemic activity in ICR mouse assessed as improvement in glucose tolerance at 25 nmol/kg, ip administered 30 min before oral glucose administration and measured upto 120 mins by OGTT; type: functional, organism-based
# Mus musculus [8] = test: Anorectic activity in ICR mouse assessed as decrease in food intake at 25 nmol/kg, ip and measured after 24 hrs; type: functional, organism-based
# Mus musculus [9] = test: Anti-diabesity activity against db/db mouse assessed as enhanced islets insulin content at 25 nmol/kg, sc administered every 2 days for 3 weeks by immunohistochemistry staining; type: functional, organism-based; details: time 21.0 day
# Mus musculus [10] = test: Anti-diabesity activity against db/db mouse assessed as reduction in body weight at 25 nmol/kg, sc administered every 2 days for 3 weeks; type: functional, organism-based; details: time 21.0 day
# Mus musculus [11] = test: Anti-diabesity activity in DIO C57BL/6 mouse assessed as reduction in body weight at 100 nmol/kg, sc administered every 2 days for 10 days; type: functional; details: time 10.0 day
# Mus musculus [12] = test: Anti-diabesity activity against DIO C57BL/6 mouse assessed as decrease in fat mass at 25 nmol/kg, sc administered every 2 days for 3 weeks; type: functional, organism-based; details: time 21.0 day
# Mus musculus [13] = test: Anti-diabesity activity against db/db mouse assessed as reduction in HbA1c level at 25 nmol/kg, sc administered every 2 days for 12 weeks; type: functional, organism-based
# Mus musculus [14] = test: Anti-diabesity activity against db/db mouse assessed as reduction in fasting blood glucose level at 25 nmol/kg, sc administered every 2 days for 12 weeks; type: functional, organism-based
# BRIN-BD11 = test: Insulinotropic activity in rat BRIN-BD11 cells assessed as increase in insulin secretion incubated for 20 mins by radioimmunoassay; type: functional, cell-based; details: DDE = dose-dependent effect
# Mus musculus [15] = test: Anti-diabesity activity against db/db mouse assessed as reduction in HbA1c level at 25 nmol/kg, sc administered every 2 days for 6 weeks followed by saline treatment for 6 weeks and measured during first 6 weeks; type: functional, organism-based
# Mus musculus [16] = test: Anti-diabesity activity against DIO C57BL/6 mouse assessed as reduction in fasted blood glucose level at 25 nmol/kg, sc administered every 2 days for 3 weeks; type: functional, organism-based; details: time 21.0 day
# Mus musculus [17] = test: Anti-diabesity activity against db/db mouse assessed as reduction in fasting blood glucose level at 25 nmol/kg, sc administered every 2 days for 6 weeks followed by saline treatment for 6 weeks and measured during second 6 weeks; type: functional, organism-based
# Mus musculus [18] = test: Anti-diabesity activity against db/db mouse assessed as reduction in fasted blood glucose level at 25 nmol/kg, sc administered every 2 days for 3 weeks; type: functional, organism-based; details: time 21.0 day
# Mus musculus [19] = test: Anti-diabesity activity in DIO C57BL/6 mouse assessed as reduction in body weight at 10 nmol/kg, sc administered every 2 days for 10 days; type: functional; details: time 10.0 day
# Mus musculus [20] = test: Anti-diabesity activity against db/db mouse assessed as improvement in glucose tolerance at 25 nmol/kg, sc administered every 2 days for 3 weeks by OGTT; type: functional, organism-based; details: time 21.0 day
# Mus musculus [21] = test: Anti-diabesity activity against db/db mouse assessed as improvement in glucose tolerance level at 25 nmol/kg, sc administered every 2 days for 6 weeks followed by saline treatment for 6 weeks and measured during second 6 weeks by OGTT; type: functional, organism-based
# Mus musculus [22] = test: Anti-diabesity activity against db/db mouse assessed as reduction in fasting blood glucose level at 25 nmol/kg, sc administered every 2 days for 6 weeks followed by saline treatment for 6 weeks and measured during first 6 weeks; type: functional, organism-based
# Mus musculus [23] = test: Anti-diabesity activity against db/db mouse assessed as increase in IOD of insulin in pancreas at 25 nmol/kg, sc administered every 2 days for 12 weeks by immunohistochemistry; type: functional, organism-based
# Mus musculus [24] = test: Anti-diabesity activity against db/db mouse assessed as increase in islet area at 25 nmol/kg, sc administered every 2 days for 3 weeks by H and E staining based analysis; type: functional, organism-based; details: time 21.0 day
# Mus musculus [25] = test: Anti-diabesity activity against db/db mouse assessed as improvement in glucose tolerance at 25 nmol/kg, sc administered every 2 days for 12 weeks by OGTT; type: functional, organism-based
# Mus musculus [26] = test: Anti-diabesity activity against db/db mouse assessed as increase in islet number at 25 nmol/kg, sc administered every 2 days for 3 weeks by H and E staining based analysis; type: functional, organism-based; details: time 21.0 day
# Mus musculus [27] = test: Hypoglycemic activity in db/db mouse assessed as reduction in glucose excursion at 25 nmol/kg, ip administered 30 min before oral glucose administration and measured upto 120 mins by OGTT; type: functional, organism-based
# Mus musculus [28] = test: Anti-diabesity activity against DIO C57BL/6 mouse assessed as improvement in glucose tolerance at 25 nmol/kg, sc administered every 2 days for 3 weeks by OGTT; type: functional, organism-based; details: time 21.0 day
# Mus musculus [29] = test: Insulinotropic activity in db/db mouse assessed as elevation of plasma insulin level at 25 nmol/kg, ip administered 30 min before oral glucose administration and measured upto 60 mins by ELISA; type: functional, organism-based; details: time <= 90.0 min
# Mus musculus [30] = test: Anti-diabesity activity against db/db mouse assessed as reduction in cumulative food intake at 25 nmol/kg, sc administered every 2 days for 3 weeks; type: functional, organism-based; details: time 21.0 day
# Mus musculus [31] = test: Anti-diabesity activity against db/db mouse assessed as reduction in HbA1c level at 25 nmol/kg, sc administered every 2 days and measured on day 43; type: functional, organism-based; details: time 43.0 day
# Mus musculus [32] = test: Anti-diabesity activity against db/db mouse assessed as reduction in HbA1c level at 25 nmol/kg, sc administered every 2 days for 6 weeks followed by saline treatment for 6 weeks and measured during second 6 weeks; type: functional, organism-based
# Mus musculus [33] = test: Anti-diabesity activity against db/db mouse assessed as increase in insulin sensitivity by measuring reduction in plasma insulin level at 25 nmol/kg, sc administered every 2 days for 12 weeks by ELISA; type: functional, organism-based
# Mus musculus [34] = test: Anti-diabesity activity in DIO C57BL/6 mouse assessed as reduction in body weight at 25 nmol/kg, sc administered every 2 days for 10 days; type: functional; details: time 10.0 day
# Mus musculus [35] = test: Anti-diabesity activity in DIO C57BL/6 mouse assessed as improvement in insulin sensitivity at 25 nmol/kg, sc administered every 2 days for 10 days by insulin tolerance test; type: functional, organism-based; details: time 10.0 day
# Mus musculus [36] = test: Anti-diabesity activity against db/db mouse assessed as improvement in glucose tolerance level at 25 nmol/kg, sc administered every 2 days for 6 weeks followed by saline treatment for 6 weeks and measured during first 6 weeks by OGTT; type: functional, organism-based
# Mus musculus [37] = test: Anti-diabesity activity against DIO C57BL/6 mouse assessed as reduction in cumulative food intake at 25 nmol/kg, sc administered every 2 days for 3 weeks; type: functional, organism-based; details: time 21.0 day
# Mus musculus [38] = test: Anti-diabesity activity against DIO C57BL/6 mouse assessed as reduction in cholesterol level in serum at 25 nmol/kg, sc administered every 2 days for 3 weeks; type: functional, organism-based; details: time 21.0 day
# Mus musculus [39] = test: Anti-diabesity activity against db/db mouse assessed as HbA1c level at 25 nmol/kg, sc administered every 2 days for 3 weeks; type: functional, organism-based; details: time 21.0 day
# Mus musculus [40] = test: Anti-diabesity activity against db/db mouse assessed as increase in pancreas mass at 25 nmol/kg, sc administered every 2 days for 12 weeks; type: functional, organism-based
# Mus musculus [41] = test: Anti-diabesity activity against DIO C57BL/6 mouse assessed as reduction in triglycerides level in serum at 25 nmol/kg, sc administered every 2 days for 3 weeks; type: functional, organism-based; details: time 21.0 day
# Mus musculus [42] = test: Hypoglycemic activity in db/db mouse assessed as improvement in glucose tolerance at 25 nmol/kg, ip administered 30 min before oral glucose administration and measured upto 120 mins by OGTT; type: functional, organism-based
# Mus musculus [43] = test: Anti-diabesity activity against DIO C57BL/6 mouse assessed as reduction in body weight at 25 nmol/kg, sc administered every 2 days for 3 weeks; type: functional; details: time 21.0 day
compound,measurement,setting,value
CCCCCCCCCCCCCCCC(=O)N[C@@H](CCC(=O)NCCCC[C@H](NC(=O)[C@H](C)NC(=O)[C@H](C)NC(=O)[C@H](CCC(N)=O)NC(=O)CNC(=O)[C@H](CCC(=O)O)NC(=O)[C@H](CC(C)C)NC(=O)[C@H](Cc1ccc(O)cc1)NC(=O)[C@H](CO)NC(=O)[C@H](CO)NC(=O)[C@@H](NC(=O)[C@H](CC(=O)O)NC(=O)[C@H](CO)NC(=O)[C@@H](NC(=O)[C@H](Cc1ccccc1)NC(=O)[C@@H](NC(=O)CNC(=O)[C@H](CCC(=O)O)NC(=O)[C@H](C)NC(=O)[C@@H](N)Cc1cnc[nH]1)[C@@H](C)O)[C@@H](C)O)C(C)C)C(=O)N[C@@H](CCC(=O)O)C(=O)N[C@@H](Cc1ccccc1)C(=O)N[C@H](C(=O)N[C@@H](C)C(=O)N[C@@H](Cc1c[nH]c2ccccc12)C(=O)N[C@@H](CC(C)C)C(=O)N[C@H](C(=O)N[C@@H](CCCNC(=N)N)C(=O)NCC(=O)N[C@@H](CCCNC(=N)N)C(=O)NCC(=O)O)C(C)C)[C@@H](C)CC)C(=O)O [LIRAGLUTIDE],inhibition in vivo at 0.025 µmol/kg,Mus musculus [1],9.8%
SEMAGLUTIDE [listing 1 of 2 here],Activity,[2],Toxic
same,Activity,[3],Toxic
CCCCCCCCCCCCCCCC(=O)N[C@@H](CCC(=O)NCCCC[C@H](NC(=O)[C@H](C)NC(=O)[C@H](C)NC(=O)[C@H](CCC(=O)O)NC(=O)[C@H](CCC(=O)O)NC(=O)[C@H](CCC(=O)O)NC(=O)[C@H](CC(C)C)NC(=O)[C@@H](NC(=O)[C@H](CCC(=O)O)NC(=O)[C@@H](NC(=O)[C@@H](NC(=O)[C@H](CC(=O)O)NC(=O)[C@H](CC(N)=O)NC(=O)[C@@H](NC(=O)[C@H](Cc1ccc(O)cc1)NC(=O)[C@@H](NC(=O)CNC(=O)[C@H](CCC(=O)O)NC(=O)C(C)(C)NC(=O)[C@@H](N)Cc1cnc[nH]1)[C@@H](C)O)[C@@H](C)O)C(C)C)[C@@H](C)O)[C@@H](C)O)C(=O)N[C@@H](CCC(=O)O)C(=O)N[C@@H](Cc1ccccc1)C(=O)N[C@H](C(=O)N[C@@H](CCC(=O)O)C(=O)N[C@@H](Cc1c[nH]c2ccccc12)C(=O)N[C@@H](CC(C)C)C(=O)N[C@H](C(=O)N[C@@H](CCCCN)C(=O)NCC(=O)N[C@@H](CCCCN)C(N)=O)[C@@H](C)CC)[C@@H](C)CC)C(=O)O (H-H[Aib]EGTYTNDVTETLEEEAAK([γGlu-Palmitoyl])EFIEWLIKGK-NH2),Activity,Mus musculus [4],Active
same,Activity,Mus musculus [5],Active
same,inhibition in vivo at 0.025 µmol/kg,Mus musculus [1],12.1%
same,Activity,Mus musculus [6],Active
same,Activity,Mus musculus [7],Active
same,Activity,Mus musculus [8],Active
SEMAGLUTIDE [listing 2 of 2 here],Activity,Mus musculus [9],Active
same,Activity,Mus musculus [10],Active
same,inhibition,Mus musculus [11],17.3%
same,Activity,Mus musculus [12],Active
same,Activity,Mus musculus [13],Active
same,Activity,Mus musculus [14],Active
same,Activity,BRIN-BD11,Dde
same,Activity,Mus musculus [15],Active
same,Activity,Mus musculus [16],Active
same,Activity,Mus musculus [17],Active
same,Activity,Mus musculus [18],Active
same,inhibition,Mus musculus [19],8.2%
same,Activity,Mus musculus [20],Active
same,Activity,Mus musculus [21],Active
same,Activity,Mus musculus [22],Active
same,Activity,Mus musculus [23],Active
same,Activity,Mus musculus [24],Active
same,Activity,Mus musculus [25],Active
same,Activity,Mus musculus [26],Active
same,Activity,Mus musculus [27],Active
same,Activity,Mus musculus [28],Active
same,Activity,Mus musculus [29],Active
same,Activity,Mus musculus [30],Active
same,Activity,Mus musculus [31],Active
same,Activity,Mus musculus [32],Active
same,Activity,Mus musculus [33],Active
same,inhibition,Mus musculus [34],12.5%
same,Activity,Mus musculus [35],Active
same,Activity,Mus musculus [36],Active
same,Activity,Mus musculus [37],Active
same,Activity,Mus musculus [38],Active
same,Activity,Mus musculus [39],Active
same,Activity,Mus musculus [40],Active
same,Activity,Mus musculus [41],Active
same,Activity,Mus musculus [42],Active
same,inhibition,Mus musculus [43],14.9%
